Reference: patent publication US9365541B2, “Compounds for use in the treatment of parasitic diseases” (IRBM—SCIENCE PARK S.P.A., priority 2012, dated 2016)
pEC50, pIC50: −log10 of the molar value.

Experiments:
[1] = test system: histone 4 acetylated lysine 8 (H4K8Ac); test: Histone hyperacetylation assay (Western blot H4K8Ac) in P. falciparum 3D7 infected erythrocytes; assay type: cell-based; conditions: Plasmodium falciparum, Erythrocyte, 20 nM to 10 uM, 14-16 hours, read-out: estimated EC50 in the hyperacetylation assay
Protocol: FIG. 1. Hyperacetylation of P. falciparum histones. Plasmodium falciparum 3D7 infected erythrocytes (5-7% parasitemia) were cultured for 14-16 hours in vitro with increasing concentrations (6 nM to 3 uM) of (A): compound (S)-N-(7-(methylamino)-1-(5-(naphthalen-2-yl)-1H-imidazol-2-yl)-7-oxoheptyl)quinuclidine-4-carboxamide (Table 2, entry 126) or with vehicle (0.01% DMSO); increasing concentrations (20 nM to 10 uM) of (B): compound (S)-N-(1-(5-(4-(1H-pyrazol-5-yl)phenyl)-1H-imidazol-2-yl)-7-(methylamino)-7-oxoheptyl)thiazole-5-carboxamide (Table 2, entry 221; Example 4, D9). Beta-actin was used as loading control (see materials and methods). H4K8Ac: antibody directed against acetylated lysine 8 of histone 4. […]
(§1) The effect of test compounds on histone acetylation status was determined by incubating Plasmodium falciparum 3D7 infected erythrocytes or HeLa cells with different concentrations of drugs or vehicle (0.01% DMSO) alone. […] Supernatants were analyzed by 12% SDS-PAGE and transferred onto PVDF (Immun-Blot PVDF Membrane for Protein Blotting, BIORAD, Cat: No 162-0177) membranes. […]

[2] = test system: histone 4 acetylated lysine 8 (H4K8Ac); test: Histone hyperacetylation assay (Western blot H4K8Ac) in HeLa cells; assay type: cell-based, human; conditions: data not shown
Protocol: FIG. 2. Hyperacetylation of HeLa's histones. HeLa cells were incubated in vitro for 14-16 hours with increasing concentrations (49 nM to 25 uM) of compound (S)-N-(7-(methylamino)-1-(5-(naphthalen-2-yl)-1H-imidazol-2-yl)-7-oxoheptyl)quinuclidine-4-carboxamide (Table 2, entry 126) or were treated with vehicle (0.01% DMSO). Beta-actin was used as loading control (see materials and methods). H4K8Ac: antibody directed against acetylated lysine 8 of histone 4.
(§2) After result normalization using positive and negative controls, compound potency is determined by fitting the following equation: % inh=Ymin+(Ymax−Ymin)/(1+(X/EC50)^slope)) Where: • Ymin=minimum percentage effect • Ymax=maximum percentage effect • EC50=the concentration of the compound at which 50% effect is reached • Slope=the slope of the curve calculated at the EC50 Histone Hyperacetylation and Immunodetection of Altered Histone Modifications Assay
as §1, with “alone. Infected erythrocytes were collected at 14-16 hours post treatment and lysed in saponin (0.15%).” for “alone.”

[3] = test system: Plasmodium falciparum 3D7; test: P. falciparum growth inhibition assay (Pf-LDH); assay type: cell-based; conditions: for pEC50: Plasmodium falciparum; for Selectivity Index: HDAC HeLa Cell Based IC50 (μM)/Pf-LDH EC50 (μM)
Summary of the method: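 P. falciparum 3D7 (chloroquine-sensitive) at 0.25% parasitemia and 2% hematocrit was incubated with compound for 72 h at 37° C under 4% CO2/3% O2/93% N2. After freeze-thaw, PfLDH activity was read at 650 nm with lactate/APAD/NBT/diaphorase mix (pH 8.0).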

[4] = target: T1, human HDAC1 (Homo sapiens, UniProt Q13547); test: Homo sapiens HDAC1 inhibition assay (Fluor-de-Lys, enzymatic); assay type: biochemical; conditions: human HDAC enzymatic assay; read-out: hHDAC IC50
T1 construct: made in house; host or cells: HeLa (ATCC CCL-2), mammalian cells
T1 sequence (Q13547 whole entry): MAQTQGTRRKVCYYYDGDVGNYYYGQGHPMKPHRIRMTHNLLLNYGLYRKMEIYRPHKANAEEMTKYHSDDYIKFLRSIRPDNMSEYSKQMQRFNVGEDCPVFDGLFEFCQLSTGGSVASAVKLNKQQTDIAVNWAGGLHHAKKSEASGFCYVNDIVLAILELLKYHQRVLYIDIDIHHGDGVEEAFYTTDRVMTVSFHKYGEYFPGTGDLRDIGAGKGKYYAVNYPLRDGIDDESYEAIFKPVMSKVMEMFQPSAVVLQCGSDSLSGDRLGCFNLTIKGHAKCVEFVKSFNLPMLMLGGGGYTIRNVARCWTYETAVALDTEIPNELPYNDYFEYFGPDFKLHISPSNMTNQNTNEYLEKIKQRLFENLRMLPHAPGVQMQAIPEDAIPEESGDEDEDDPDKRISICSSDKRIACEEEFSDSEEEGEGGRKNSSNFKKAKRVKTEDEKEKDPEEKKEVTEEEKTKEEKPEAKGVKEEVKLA
Summary of the method: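 Product developed with trypsin developer containing 2 μM TSA to stop the reaction; fluorescence measures deacetylase activity, inversely related to inhibition.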

[5] = test system: HDAC1 (deacetylase activity inside HeLa cells); test: Cell based HDAC1 inhibition (HDAC HeLa Cell based assay); design: species or system human
Protocol: After result normalization using positive and negative controls, compound potency is determined by fitting the following equation: % inh=Ymin+(Ymax−Ymin)/(1+(X/IC50)^slope)) Where: • Ymin=minimum percentage inhibition • Ymax=maximum percentage inhibition • IC50=the concentration of the compound at which 50% inhibition is reached • Slope=the slope of the curve calculated at the IC50 Cell Based HDAC1 Inhibition Overview:
The aim of the assay is to evaluate the inhibition of the deacetylase activity inside the cells. To such goal a membrane permeable substrate is added to HeLa cells. After the incubation period, cells are lysed and the deacetylated substrate is evaluated using the same principles previously described for the human HDAC1 assay.
HeLa cells (HeLa, cervix adnocarcinoma, ATCC® Number: CCL-2™) frozen stock are derived from cell cultured in DMEM, glutamine, penicilline, streptomicine and 10% fetal bovine serum (FBS). Stock are frozen in 90% FBD and 10% DMSO.
b) HDAC Substrate Buffer System
Reagents of the HDAC Fluorescent Activity Assay are purchased from Enzo Life Sciences (http://www.enzolifesciences.com/BML-AK500/fluor-de-lys-hdac-fluorometric-activity-assay-kit/) and feature the Fluor-de-Lys™ Substrate/Developer System. The reagents include the proprietary fluorescent substrate as a 50 mM stock solution (KI-104), and the Developer Concentrate (KI-105). Deacetylation of the lysine residue of the Fluor-de-Lys substrate is quantified by measuring the fluorescence (ex 360 nm, em 460 nm) after addition of the proprietary developer.
TSA is provided as a 10 mM stock solution in 100% dimethylsulfoxide (DMSO).
Test compounds should be prepared in 100% DMSO and transferred to the assay by a nano volume dispenser to reach the appropriate concentration and the appropriate DMSO concentration (0.25%) in the reaction.
GIBCO Dulbecco's Mod Eagle Medium without Phenol Red (cat n° 11880) Completed with 10% FCS—fetal bovine serum—, 1% Penicillin-Streptomycin (10 mg/ml) and 1% L-Glutamine 200 mM (100×)
f) Diluted Substrate Solution
The commercial 50 mM Fluor-de-Lys substrate (KI-104) is diluted to 400 uM in Assay Buffer prior to each use.
g) Diluted Stop-Lysis-Developer Solution
The reaction is performed in 384-well microplate in a final volume of 20 μl/well+10 μl/well of Stop-Lysis-Developer Mix, as following: • seed 10000 HeLa cells/well, from the frozen aliquots, in 15 μl in assay medium and let recover overnight; • transfer compounds to the assay by nano-volume transfer machine in order to reach the desired assay concentration and a final DMSO concentration of 0.25%; • pre-incubate compounds on cells for 30 min; • start the reaction by adding 5 μl of the Diluted Substrate Solution; • stop the reaction after 4 h incubation at 37° C. 5% CO2 by adding 10 μl of Diluted Stop-Lysis-Developer Solution; • incubate 20 min at 37° C.; • after 10 min at RT measure the fluorescence at excitation 360 nm and emission 460 nm
Negative controls (0% Effect) are produced by addition of DMSO to the proper wells.
Positive controls (100% Effect) are produced by addition of 4 μM TSA to the proper wells.
as §2, with “In Vitro Culture” for “Histone Hyperacetylation and Immunodetection”, “P. falciparum Parasites” for “Altered Histone Modifications Assay”

[6] = Erythrocyte, P. falciparum 3D7 infected erythrocytes, 72 h incubation, PfLDH readout

| SMILES | pEC50 [3, 6] | pIC50 [4] | pIC50 [5] | pEC50 [1] | concentration up to which no change in histone acetylation was observed in HeLa cells [2] [µM] | pEC50 ([3]; P. falciparum 3D7, n=11) | Selectivity Index [3] |
| --- | --- | --- | --- | --- | --- | --- | --- |
| CNC(=O)CCCCC[C@H](NC(=O)c1cncs1)c1ncc(-c2ccc(-c3ccn[nH]3)cc2)[nH]1 [D9, (S)-N-(1-(5-(4-(1H-pyrazol-5-yl)phenyl)-1H-imidazol-2-yl)-7-(methylamino)-7-oxoheptyl)thiazole-5-carboxamide] |  |  |  | 6.46 | > 10 |  |  |
| CNC(=O)CCCCC[C@H](NC(=O)c1cnsc1)c1ncc(-c2ccc(-c3ccn(C)n3)cc2)o1 [Entry 226, (S)-N-(1-(5-(4-(1-methyl-1H-pyrazol-3-yl)phenyl)oxazol-2-yl)-7-(methylamino)-7-oxoheptyl)isothiazole-4-carboxamide] | 5.30 to 6.00 | < 5.30 |  |  |  |  |  |
| CNC(=O)CCCCC[C@H](NC(=O)C12CCN(CC1)CC2)c1ncc(-c2ccc3ccccc3c2)[nH]1 [compound 126, (S)-N-(7-(methylamino)-1-(5-(naphthalen-2-yl)-1H-imidazol-2-yl)-7-oxo-heptyl)quinuclidine-4-carboxamide] | > 6.00 | > 6.00 |  |  |  | 6.53 |  |
| CNC(=O)CCCCC[C@H](NC(=O)c1cnn(C(C)C)c1)c1ncc(-c2ccc3cc(OC)ncc3c2)[nH]1 [compound 227, (S)-1-isopropyl-N-(1-(5-(3-methoxyisoquinolin-7-yl)-1H-imidazol-2-yl)-7-(methylamino)-7-oxoheptyl)-1H-pyrazole-4-carboxamide] | > 6.00 | > 6.00 | 5.30 to 6.00 |  |  |  | 23.5 |
| CNC(=O)CCCCC[C@H](NC(=O)c1cncs1)c1ncc(-c2ccc(-c3cnn(C)c3)cc2)[nH]1 [compound 228, (S)-N-(1-(5-(4-(1-methyl-1H-pyrazol-4-yl)phenyl)-1H-imidazol-2-yl)-7-(methylamino)-7-oxoheptyl)thiazole-5-carboxamide] | 5.30 to 6.00 | < 5.30 | < 5.30 |  |  |  | 6.7 |

More lines, main results first:

| pEC50 [3, 6] | pIC50 [4] | pIC50 [5] | SMILES | pEC50 [1] | concentration up to which no change in histone acetylation was observed in HeLa cells [2] [µM] | pEC50 ([3]; P. falciparum 3D7, n=11) | Selectivity Index [3] |
| --- | --- | --- | --- | --- | --- | --- | --- |
| 5.30 to 6.00 | < 5.30 | < 5.30 | CNC(=O)CCCCC[C@H](NC(=O)c1cncs1)c1ncc(-c2ccc(-c3ccnn3C)cc2)[nH]1 [compound 229, (S)-N-(1-(5-(4-(1-methyl-1H-pyrazol-5-yl)phenyl)-1H-imidazol-2-yl)-7-(methylamino)-7-oxoheptyl)thiazole-5-carboxamide] |  |  |  | 5.6 |
| 5.30 to 6.00 | 5.30 to 6.00 | < 5.30 | CNC(=O)CCCCC[C@H](NC(=O)c1cncs1)c1ncc(-c2ccc(-c3cncs3)cc2)[nH]1 [compound 230, (S)-N-(7-(methylamino)-7-oxo-1-(5-(4-(thiazol-5-yl)phenyl)-1H-imidazol-2-yl)heptyl)thiazole-5-carboxamide] |  |  |  | 3.6 |
| > 6.00 | 5.30 to 6.00 | < 5.30 | CNC(=O)CCCCC[C@H](NC(=O)c1cncs1)c1ncc(-c2ccc(-c3nccs3)cc2)[nH]1 [compound 231, (S)-N-(7-(methylamino)-7-oxo-1-(5-(4-(thiazol-2-yl)phenyl)-1H-imidazol-2-yl)heptyl)thiazole-5-carboxamide] |  |  |  | 10.6 |
| > 6.00 | 5.30 to 6.00 | < 5.30 | CNC(=O)CCCCC[C@H](NC(=O)c1cncs1)c1ncc(-c2ccc(-c3cscn3)cc2)[nH]1 [compound 232, (S)-N-(7-(methylamino)-7-oxo-1-(5-(4-(thiazol-4-yl)phenyl)-1H-imidazol-2-yl)heptyl)thiazole-5-carboxamide] |  |  |  | 14.2 |
